For data set [1] the following is noted: rat, in vivo.
The conditions of data set [2]: rat, in vivo. This is another data set of the same source.

This note sets out measurements from patent US5186941A (priority 1991, dated 1993).

Each structure is given as a SMILES string.

Regarding `C[n+]1ccccc1/C=N/O` [2-PAMCl, 2-pralidoxime chloride], in data set [1], the “duration of therapeutic plasma drug level (4.0 μg/ml plasma)” value was 21/4 and the “time until blood concentration drops below therapeutic level (TL)” value fell in the range of 2 to 3 h. Besides, the “death of all animals, time after injection” value in data set [2] is at most 30 min.
